# Data: US12516058B2, “Small-molecule compounds for controlling endosomal toll-like receptors and therapeutic agent for autoimmune diseases using same” (priority 2020, dated 2026)
# “Also recorded” adds a separate entry of the source.
# Target: T1, TLR3 (Mus musculus, UniProt Q99MB1)
# T1 construct: RAW 264.7 cells were pretreated with each candidate compound for 1 hour; endogenous in cells; host or cells: RAW 264.7
# T1 sequence (Q99MB1 26-905): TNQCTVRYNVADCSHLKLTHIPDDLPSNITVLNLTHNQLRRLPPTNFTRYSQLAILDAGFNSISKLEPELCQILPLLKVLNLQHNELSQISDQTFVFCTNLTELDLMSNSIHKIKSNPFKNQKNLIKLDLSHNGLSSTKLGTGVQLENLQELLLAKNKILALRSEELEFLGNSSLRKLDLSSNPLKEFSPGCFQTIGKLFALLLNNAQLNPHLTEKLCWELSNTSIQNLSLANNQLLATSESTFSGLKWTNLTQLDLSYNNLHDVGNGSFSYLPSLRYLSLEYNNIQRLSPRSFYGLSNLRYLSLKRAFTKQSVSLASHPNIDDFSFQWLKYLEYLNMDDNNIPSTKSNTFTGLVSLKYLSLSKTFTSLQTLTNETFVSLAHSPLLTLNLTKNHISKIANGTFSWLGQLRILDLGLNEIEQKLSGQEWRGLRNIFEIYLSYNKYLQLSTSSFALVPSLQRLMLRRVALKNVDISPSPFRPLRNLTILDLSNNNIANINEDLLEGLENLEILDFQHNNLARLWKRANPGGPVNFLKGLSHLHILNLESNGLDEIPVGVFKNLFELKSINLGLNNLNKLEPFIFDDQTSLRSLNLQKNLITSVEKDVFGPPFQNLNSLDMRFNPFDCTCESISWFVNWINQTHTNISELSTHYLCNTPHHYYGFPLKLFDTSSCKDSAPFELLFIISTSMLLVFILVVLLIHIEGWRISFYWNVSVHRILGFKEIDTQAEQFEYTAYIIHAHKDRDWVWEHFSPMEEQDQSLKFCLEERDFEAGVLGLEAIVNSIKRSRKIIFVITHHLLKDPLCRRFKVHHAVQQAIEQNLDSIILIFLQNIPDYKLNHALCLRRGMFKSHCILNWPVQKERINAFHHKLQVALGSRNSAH
# Assay: TNF-α secretion ELISA after TLR3 agonist poly I:C in RAW 264.7 cells
# Type: cell-based
# Settings: SK01, SK16; RAW 264.7 cells, poly I:C 24 h
# Procedure: In order to determine the inhibitory activities of the test-ligand, RAW 264.7 cells were pretreated with each candidate compound for 1 hour, then treated with Pam3CSK4 (synthetic triacyl lipopeptide; TLR1/2, Invitrogen), FSL-1 (synthetic diacyl lipoprotein, TLR2/6, 100 ng/ml), lipopolysaccharide (LPS, TLR4, Sigma Aldrich), imiquimod (IMQ, TLR7, Invitrogen), and ODN2395 (type C CpG repeat motif DNA oligo(5′-[…]-3), TLR9, Bioneer) ligand for 4 hours, and treated with poly I:C (I:C repeat motif double-stranded RNA, TLR3, Invitrogen) and TL8-506 (TLR8, Invitrogen) showing delayed reactivity for 24 hours. After activation of TLR, the supernatant was diluted in an appropriate ratio so as to measure within the standard dose range, transferred to a pre-coated 96-well assay plate, and then treated with mouse TNF-alpha secretion level in accordance with the manufacturer's instructions using a mouse-TNF-alpha ELISA-kit (Invitrogen).
# In order to determine the inhibitory activities of SK41, SK50, SK58 and SK64 on various TLR signaling pathways, RAW 264.7 cells were cultured along with each compound and then stimulated with different TLR agonists. The TLR agonists used herein were Pam3CSK4 (TLR1/2), FSL-1 (TLR2/6), LPS (TLR4) and FLA-ST (TLR5) as cell surface TLRs, and poly I:C (TLR3) and TL8-506 (TLR8) as endosomal TLRs.
row,Compound,inhibition of the function of endosomal TLR3
1,"Cc1c(C)n(CCN(C)C)c2nc3c(c(N)c12)CCCCC3 [SK01, 1-(2-(dimethylamino)ethyl)-2,3-dimethyl-1,5,6,7,8,9-hexahydrocyclohepta[b]pyrrolo[3,2-e]pyridin-4-amine]",specifically inhibit
2,"Cc1c(C)n(CCCN(C)C)c2nc3c(c(N)c12)CCCCC3 [SK16, 1-(3-(dimethylamino)propyl)-2,3-dimethyl-1,5,6,7,8,9-hexahydrocyclohepta[b]pyrrolo[3,2-e]pyridin-4-amine]",specifically inhibit

# Same assay, conditions: SK41, SK50, SK58, SK64; poly I:C
row,Compound,inhibitory activity against endosomal TLR3 (TNF-α secretion)
1,"Cc1cc2c(N)c3c(nc2n1CCCN(C)C)CCCCCC3 [SK41, 1-(3-(dimethylamino)propyl)-2-methyl-5,6,7,8,9,10-hexahydro-1H-cycloocta[b]pyrrolo[3,2-e]pyridin-4-amine]",strong inhibitory activity; also recorded: specific inhibitory activities
2,"COc1ccc2c(c1)c1c(N)c3c(nc1n2CCCN(C)C)CCCC3 [SK50, 6-(3-(dimethylamino)propyl)-9-methoxy-2,3,4,6-tetrahydro-1H-indolo[2,3-b]quinolin-11-amine]",strong inhibitory activity; also recorded: specific inhibitory activities
3,"Cc1ccc2c(c1)c1c(N)c3c(nc1n2CCCN(C)C)CCCC3 [SK58, 6-(3-(dimethylamino)propyl)-9-methyl-2,3,4,6-tetrahydro-1H-indolo[2,3-b]quinolin-11-amine]",strong inhibitory activity; also recorded: specific inhibitory activities
4,"COC(=O)c1ccc2c(c1)c1c(N)c3c(nc1n2CCCN(C)C)CCCC3 [SK64, Methyl 11-amino-6-(3-(dimethylamino)propyl)-2,3,4,6-tetrahydro-1H-indolo[2,3-b]quinolin-9-carboxylate]",strong inhibitory activity; also recorded: specific inhibitory activities
